Source: patent publication US7723324B2 (priority 2003, dated 2010)

Legend:
[1] = molecular target: T1, peripheral benzodiazepine receptors (Rattus norvegicus, UniProt P16257); test: benzodiazepine receptor binding (test of LeFur et al.), peripheral
T1 construct: from tissue; Rat heart membranes according to own knowledge of the cited Le Fur et al. method
Procedure: Compounds of the invention were assessed for their binding to the benzodiazepine receptor by the test of Speth et al. [Life Sci. 24, 351 (1979)] for central benzodiazepine receptors and LeFur et al. [Life Sci. 33, 449 (1983)] for peripheral receptors. The compounds were tested first at 1.00E-09, 1.0E-07 and 1.0E-05 M in single determination. […] The specific ligand binding to the receptor is defined as the difference between the total binding and the nonspecific binding determined in the presence of an excess of unlabelled ligand. In each experiment, the respective reference compound was tested concurrently with the test compounds in order to assess the assay suitability. It was tested at several concentrations (for IC50 value determination), and the data were compared with historical values. The assay was rendered valid if suitability criteria were met.
However, the invention is not limited to the compounds found in the Tables.

[2] = maze test, which tests anxiety; format: in vivo; conditions: 10 mg/kg
Procedure: The compounds of Example 1d (also found in Example 6d), Example 22d, and Example 35d, were also tested in vivo using the maze test, which tests anxiety [Montgomery, J. Comparative and Physiological Psychology 48, 254-60 (1955); Handley et al., Naunyn-Schmiedeberg's Archives of Pharmacology 327, 1-5 (1984); Lister, Psychopharm. 92, 180-85 (1987); Pellow et al., J. Neuroscience Methods 14, 149-67 (1985); Rodgers et al., Ethology and Psychopharmacology, S. J. Cooper and C. A. Hendrie (eds), John Wiley & Sons, Ltd., 9-43 (1994); and Trullas et al., Psychopharm. 111, 323-31 (1993)]. The results of the maze test for these compounds are found in FIGS. 1a, 1b, 2a, 2b, 3a, and 3b. FIGS. 1a, 2a, and 3a are graphs of the Number of Entries in Open Arms vs. mg/kg (dose of administered compound). FIGS. 1b, 2b, and 3b plot the Percent of Time Spent in Open Arms vs. mg/kg (dose of administered compound). […] The results of the maze test are accepted by persons of skill in the art as predictive of therapeutic utility.

T1 sequence (P16257 whole entry): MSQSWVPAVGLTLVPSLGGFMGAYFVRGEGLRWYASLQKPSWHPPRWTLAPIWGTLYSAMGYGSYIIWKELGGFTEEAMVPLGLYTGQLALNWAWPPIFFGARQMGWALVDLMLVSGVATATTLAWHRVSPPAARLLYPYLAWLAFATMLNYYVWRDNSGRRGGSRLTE

Row | Compound | IC50 ([1]; Table 1a) | other results
1 | Cc1ccc(-c2nc3ccc(C)cn3c2CC(=O)c2cccn2C)cc1 | > 10000 nM | –
2 | Cc1ccc(-c2nc3ccc(C)cn3c2CC(=O)c2c(C)nc3ccccn23)cc1 | 1600 nM | –
3 | Cc1ccc(-c2nc3ccc(C)cn3c2CC(=O)c2cc(C)n[nH]2)cc1 | > 10000 nM | –
4 | Cc1ccc(-c2nc3ccc(C)cn3c2CC(=O)c2cc3ccccc3n2C)cc1 | 540 nM | –
5 | Cc1ccc(-c2nc3ccc(C)cn3c2CC(=O)c2cnn3c(C)cc(C)nc23)cc1 | > 10000 nM | –
6 | COc1ccc(-c2nc3ccc(C)cn3c2CC(=O)c2cccn2C)cc1 | – | IC50 ([1]; Table 1b): 1700 nM
7 | COc1ccc(-c2nc3ccc(C)cn3c2CC(=O)c2cnn3c(C)cc(C)nc23)cc1 | – | IC50 ([1]; Table 1b): > 10000 nM
8 | Cc1ccc(-c2nc3ccc(C)cn3c2C2CCN(C)C2=O)cc1 (stereo not shown) | – | IC50 ([1]; Table 2): > 10000 nM
9 | Cc1ccc(-c2nc3ccc(C)cn3c2CC(=O)c2cccs2)cc1 [Example 1d, 2-(6-Methyl-2-p-tolyl-imidazo[1,2-a]pyridin-3-yl)-1-thiophen-2-yl-ethanone] | – | maze test activity (Number of Entries in Open Arms, Percent of Time Spent in Open Arms) [2]: statistically significant activity
10 | COc1ccsc1C(=O)Cc1c(-c2ccc(C)cc2)nc2ccc(C)cn12 [Example 22D, 1-(3-Methoxy-thiophen-2-yl)-2-(6-methyl-2-p-tolyl-imidazo[1,2-a]pyridin-3-yl)-ethanone] | – | maze test activity (Number of Entries in Open Arms, Percent of Time Spent in Open Arms) [2]: statistically significant activity
